ChEMBL document CHEMBL1132692, “Paclitaxel derivatives for targeted therapy of cancer: toward the development of smart taxanes” (J Med Chem, 1999)

Columns and labels:
[1] = target: Gastrin-releasing peptide receptor (Mus musculus) (UniProt P21729); assay: Inhibition of [125I]Tyr3-BBN binding to BNR-11 cell line (Bombesin/gastrin-releasing peptide receptor); type: cell-based; settings: concentration not given here
[2] = target: T1, Bombesin receptor subtype-3 (Homo sapiens) (UniProt P32247); assay: Inhibition of [125I]Tyr3-BBN binding to NCI-H1299 cell line; type: cell-based; settings: concentration not given here
T1 sequence (whole entry): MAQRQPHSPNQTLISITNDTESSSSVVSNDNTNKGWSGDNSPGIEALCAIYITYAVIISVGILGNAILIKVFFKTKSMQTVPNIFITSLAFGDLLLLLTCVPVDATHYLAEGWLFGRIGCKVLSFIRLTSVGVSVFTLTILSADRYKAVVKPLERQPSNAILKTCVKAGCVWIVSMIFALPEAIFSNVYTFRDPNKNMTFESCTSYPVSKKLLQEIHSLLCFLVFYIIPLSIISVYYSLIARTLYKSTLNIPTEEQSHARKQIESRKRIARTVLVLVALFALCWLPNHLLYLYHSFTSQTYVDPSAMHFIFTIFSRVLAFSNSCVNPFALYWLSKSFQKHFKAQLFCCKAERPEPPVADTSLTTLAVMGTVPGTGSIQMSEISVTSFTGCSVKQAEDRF

NCI-H1299 [3] = assay: Inhibitory concentration against NCI-H1299 Human Nonsmall cell lung cancer cells after 96h exposure to the compound.; type: functional, cell-based; settings: NCI-H1299, 96 h
NCI-H1299 [4] = assay: Inhibitory concentration against NCI-H1299 Human Nonsmall cell lung cancer cells after 24 hr exposure to the compound.; type: functional, cell-based; settings: NCI-H1299, 24 h

Sequence of Gastrin-releasing peptide receptor (Mus musculus) (P21729 whole entry): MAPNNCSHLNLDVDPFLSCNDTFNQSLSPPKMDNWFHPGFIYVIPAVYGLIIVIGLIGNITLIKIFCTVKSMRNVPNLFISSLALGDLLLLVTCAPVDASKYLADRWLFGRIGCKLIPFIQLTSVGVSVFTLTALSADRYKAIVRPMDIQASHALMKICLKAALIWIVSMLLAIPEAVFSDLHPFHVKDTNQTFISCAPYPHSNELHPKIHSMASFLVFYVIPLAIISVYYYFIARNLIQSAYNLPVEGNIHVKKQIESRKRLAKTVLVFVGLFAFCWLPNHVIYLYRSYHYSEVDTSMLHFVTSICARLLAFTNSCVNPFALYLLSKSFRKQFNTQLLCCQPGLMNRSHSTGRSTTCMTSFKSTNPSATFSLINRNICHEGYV

SMILES | inhibition [1] | inhibition [2] | IC50 (NCI-H1299 [3]) | IC50 (NCI-H1299 [4])
CC(C)C[C@H](NC(=O)[C@H](Cc1c[nH]cn1)NC(=O)CNC(=O)[C@@H](NC(=O)[C@H](C)NC(=O)[C@H](Cc1c[nH]c2ccccc12)NC(=O)[C@@H](N)CCC(N)=O)C(C)C)C(N)=O | 14% | 3.6% |  | 
CC(=O)O[C@H]1C(=O)[C@@]2(C)[C@H]([C@H](OC(=O)c3ccccc3)[C@]3(O)C[C@H](OC(=O)[C@H](O)[C@@H](NC(=O)c4ccccc4)c4ccccc4)C(C)=C1C3(C)C)[C@]1(OC(C)=O)CO[C@@H]1C[C@@H]2O [PACLITAXEL] |  |  | 15 nM | 35 nM
